The subject of one assay is CV-A16. In words: Post-treatment assay, antiviral spectrum. Format: cell-based, Coxsackievirus A16. The procedure: We were also interested in the antiviral potential of ZAF-47 against other Enteroviruses. As such, we performed post-treatment assay on RD cells infected with other Enteroviruses such as CV-A16, CV-A6, Echo7, CV-B5, CV-A24 and EV-D68.
To determine the inhibitory profiles of the hits, post treatment assay was performed. Seeded 24-well plates, with 1.5 × 10^5 RD cells per well, were incubated overnight at 37 °C with 5% CO2. The seeded cells were infected with EV-A71 (100 µL per well, MOI = 1) for 1 h at 37 °C with 5% CO2 and then rinsed with 1 mL of PBS twice. […]
Measurement of the viral titres from collected supernatants was derived from viral plaque assays. To do this, 24-well plates, seeded with 2.4 × 10^5 RD cells per well, were used in plaque assays for EV-A71, EV-D68, Echo7, CV-A6, CV-A16 and CV-A24 while 24-well plates, seeded with 1.2 × 10^5 Vero cells per well, were used in plaque assays for CV-B5. Seeded cells were incubated overnight at 37 °C with 5% CO2. Viral supernatants were diluted from 10^−1 to 10^−7 in reduced serum DMEM before infecting the cells with a volume of 100 µL for 1 h at 37 °C with 5% CO2 (33 °C instead for EV-D68). Cells were rinsed twice with PBS before overlaying with 1 mL of reduced serum DMEM containing 0.5% agarose (Vivantis, Shah Alam, Malaysia). […] Subsequent formation of viral plaques was counted manually to quantify the viral titre in PFU/mL […]

In assay [1] the test system is replication-competent EV-A71 RNA replicon. In words: Nano-luciferase reporter assay, replication-competent replicon. As to conditions: RD cells, 12 h; ZAF-47 different concentrations, GuHCl 1 mM. Type of assay: cell-based, human enterovirus A71 (EV-A71). The procedure:
To identify specifically which of these two intrinsically linked processes that ZAF-47 inhibits, we transfected RD cells with EV-A71 RNA replicons that were either replication-competent or replication-defective and subsequently treated them with different concentrations of ZAF-47 for 12 h before detecting for luminescence. Both forms of replicons were previously established and validated. The replication-competent replicon is capable of self-replicating as it contains an intact 3D region that encodes for 3D polymerase (3D^pol) responsible for RNA replication (Figure 4c). […] In contrast, the replication-defective replicon contains a 3D region with 159 nucleotide deletion which would produce a non-functional 3D protein and impair RNA replication (Figure 4c). As such, cells containing the replication-defective replicon express luciferase upon IRES translation of the original replicons only. The transfected cells were also treated with negative control, DMSO and positive controls, guanidine hydrochloride (GuHCl) and cycloheximide (CHX), a RNA replication-specific inhibitor [50] and a general translation inhibitor [51] respectively.
Seeded 96-well plates, with 2 × 10^4 RD cells per well, were incubated overnight at 37 °C with 5% CO2. […]

Another assay deals with EV-A71 virions. In words: Co-treatment assay. Type of assay: cell-based, human enterovirus A71 (EV-A71) strain 41. As to conditions: 20 µM with virions for 30 min, 12 hpi. The procedure: To confirm this finding, assays to investigate the effect of ZAF-47 on EV-A71 entry into cells were performed. With pre-treatment assay, we first treated the cells with different concentrations of ZAF-47 before subjecting them to EV-A71 infection. The aim was to investigate if ZAF-47 was able to bind to host surface receptors which would prevent the virions from binding and thus blocking viral entry. […] Even at the highest concentration, the reduction in viral titre (0.8 log10 PFU/mL decrease) was not as pronounced as post-treatment and could likely be due to drug toxicity. Thus, it is unlikely that ZAF-47 inhibits EV-A71 infection by binding with host receptors to block viral entry. With co-treatment assay, we first treated EV-A71 virions with ZAF-47 for 30 min before infecting the cells. The aim was to investigate if ZAF-47 was able to bind to viral surface proteins which would prevent the virions from binding to the host receptors and thus blocking viral entry. […] Thus, it is unlikely that ZAF-47 blocks EV-A71 entry into host cells by binding to viral surface proteins. Instead, using entry bypass assay, we were able to deduce that ZAF-47 most likely targets EV-A71 post-entry stages. […]
Seeded 24-well plates, with 1.5 × 10^5 RD cells per well, were incubated overnight at 37 °C with 5% CO2. […] The plates were frozen down at 12 hpi for viral titre quantification using viral plaque assay.

The IC50 is the concentration that gives 50% inhibition. Low values mean greater potency in that assay, high ones weaker potency in that assay.

Consider `CC(=O)OC[C@]1(C)C(=O)CC[C@@]2(C)C(C/C=C3/C(=O)OC[C@@H]3Oc3cccc4cccnc34)=C(C)CC[C@@H]21` [ZAF-47, (14β)-(8′-Quinolinoxy)-3-ketone-9-dehydro-17-hydro-19-acetoxy–andrographolide], for which the viral titre entry in the assay with CV-A16 (10 µM, CV-A16-infected RD cells) is “reducing the viral titres of the above-listed enteroviruses significantly”. The molecule further returned a half-maximal inhibitory concentration (IC50) in the assay with CV-A16 (CVA16, CV-A16, Enterovirus A, drug treatment duration 16 h, RD cells) of 1.38 µM. For the same molecule, the “luminescence, replication-competent replicon” value in assay [1] is “significant decrease in luminescence in a dose-dependent manner”. The “viral titre versus DMSO treatment” value in the assay with EV-A71 virions was “no significant difference”.
